Here are results for twelve molecules from publication PMC5974779, “Prediction of Drug-Induced Hepatotoxicity Using Long-Term Stable Primary Hepatic 3D Spheroid Cultures in Chemically Defined Conditions” (Toxicological Sciences, 2018).

Data set [1] deals with primary human hepatocytes (PHH) 3D spheroids.
The next data set concerns clinical DILI in man. Conditions: cited from earlier work.
For data set [2] the following is noted: cited from earlier work.
The conditions of data set [3]: ref DrugBank and Prescribers' Digital Reference database; cited from earlier work.
Another data set deals with PHH 2D sandwich cultures. The settings on record: cited from earlier work; for hepatotoxicity detection in 2D sandwich cultures of PHH: 100× cmax, 24 h, high content imaging.
Data set [4] relates to PHH micropatterned cocultures with murine embryonic fibroblasts. The settings on record: cited from earlier work.
Data set [5] concerns PHH spheroids (hanging-drop). The settings on record: cited from earlier work.
Another data set in a line: in vitro. Conditions: human.
Where [6] appears, read: therapeutic total cmax, ref PMID.
The mark [7] stands for this setting: PHH 2D sandwich cultures, 100x Cmax, ref Xu 2008.
The mark [8] stands for this setting: micropatterned cocultures, 100x Cmax, ref Khetani 2013.
[9] abbreviates: PHH hanging-drop spheroids, 100x Cmax, ref Proctor 2017.
The mark [10] stands for this setting: clinical DILI classification in man (POS/NEG).
[11] abbreviates: clinical DILI classification used in this study, Supplementary Table 2, ref Chen et al., 2011, Guo et al., 2005, O'Brien et al., 2006, Sakatis et al., 2012, Suzuki et al., 2010, Xu et al., 2008.
Where [12] appears, read: clinical DILI classification, Supplementary Table 1, ref Chen et al., 2011, Guo et al., 2005, O'Brien et al., 2006, Sakatis et al., 2012, Suzuki et al., 2010, Xu et al., 2008.

Read-outs that look alike come from different tables or passages of the source.

In the case of `CN1C(C(=O)Nc2ccccn2)=C(O)c2ccccc2S1(=O)=O` [Piroxicam], the “Chemically defined spheroids (this study) 20x” value (“Chemically defined spheroids” for short) in data set [1] is recorded as “Negative”. Moreover, in the data set with clinical DILI in man (in vivo), the Classified as entry is “POS”, the “Clinical DILI class (panel heading of Figure 4)” value (shortened to “Clinical DILI class”) is reported as “High DILI concern”, the DILI in vivo entry is given as “POS” and the “FDA (0-8)” value is 3. Besides, in the data set with clinical DILI in man (in vivo), the “FDA (Severity)” value is “less DILI concern”, the “Guo et al. (2005)” value is reported as 2, the “O'Brien et al. (2003)” value was “Severely” and the “Sakatis et al. (2012)” value was “Hepatotoxic”. In addition, in the data set with clinical DILI in man (in vivo), the “Suzuki et al. (2010)” value is recorded as 1; the “Type of DILI” value is reported as “Hepatocellular injury, Cholestatic injury or Mixed hepatitis”; the “Xu et al. (2008)” value is reported as “Positive”. For the same molecule, in data set [2] (setting [6]), the Cmax (commonly the peak of the concentration-time curve) was 5.13 µM. For the same molecule, the “Extent of hepatic metabolism” value in data set [3] is recorded as “Extensive”. Moreover, in the data set with PHH 2D sandwich cultures (setting [7]), the “2Dsw (Xu 2008) 100x” value is recorded as “Negative”. Further, the “MPCC (Khetani 2013) 100x” value in data set [4] (setting [8]) is listed as “Negative”.

With `O=c1n(CCCN2CCN(c3cccc(Cl)c3)CC2)nc2ccccn12` [Trazodone], the “Chemically defined spheroids” value in data set [1] is on record as “Positive”. Further, in the data set with clinical DILI in man (in vivo), the Classified as result is on record as “POS”, the “Clinical DILI class” value was “High DILI concern”, the DILI in vivo result is recorded as “POS” and the “FDA (0-8)” value was 5. For the same molecule, in the data set with clinical DILI in man (in vivo), the “FDA (Severity)” value was “less DILI concern”; the “Type of DILI” value was “Hepatocellular injury, Cholestatic injury or Mixed hepatitis”; the “Xu et al. (2008)” value is recorded as “Positive”. In addition, the Cmax in data set [2] (setting [6]) is 5.1 µM. Further, in data set [3], the “Extent of hepatic metabolism” value is “Extensive”. The “2Dsw (Xu 2008) 100x” value in the data set with PHH 2D sandwich cultures (setting [7]) was “Positive”. Besides, the “MPCC (Khetani 2013) 100x” value in data set [4] (setting [8]) is “Positive”.

With `O=C(O)Cc1ccccc1Nc1c(Cl)cccc1Cl` [Diclofenac], in data set [1], the “Chemically defined spheroids” value was “Positive”. Further, the “2Dsw (Xu 2008) 100x” value with PHH 2D sandwich cultures (setting [7]) is listed as “Positive”. For the same molecule, the “MPCC (Khetani 2013) 100x” value in data set [4] (setting [8]) was “Positive”. For the same molecule, in data set [5] (setting [9]), the “Hanging-drop spheroids (Proctor 2017) 100x” value (from here on “Hanging-drop spheroids”) is recorded as “Positive”.

In the case of `Cc1cccc(Nc2ccccc2C(=O)O)c1C` [Mefenamic Acid], the “Chemically defined spheroids” value in data set [1] is listed as “Positive”. For the same molecule, in the data set on clinical DILI in man (in vivo), the Classified as result is recorded as “POS”, the “Clinical DILI class” value is given as “Severe DILI”, the DILI in vivo result is “POS” and the “FDA (0-8)” value is 8. Further, in the data set with clinical DILI in man (in vivo), the “Sakatis et al. (2012)” value was “Hepatotoxic”, the “Type of DILI” value was “Hepatocellular injury” and the “Xu et al. (2008)” value is listed as “Positive”. Besides, the Cmax in data set [2] (setting [6]) is 26.9 µM. Further, in data set [3], the “Extent of hepatic metabolism” value was “Extensive”. Besides, the “2Dsw (Xu 2008) 100x” value in the data set on PHH 2D sandwich cultures (setting [7]) is “Positive”. Also, the “MPCC (Khetani 2013) 100x” value in data set [4] (setting [8]) is reported as “Positive”.

As for `CNCCc1ccccn1` [Betahistine], in data set [1], the “Chemically defined spheroids” value is recorded as “Negative”. The DILI in vivo result in the data set on clinical DILI in man (setting [10]) and in the data set on clinical DILI in man (setting [12]) was “POS” throughout. Moreover, in the data set with clinical DILI in man (setting [11]), the Classified as entry is “POS”. In addition, the Cmax in data set [2] (setting [6]) is 0.0037 µM. In addition, in data set [3], the “Extent of hepatic metabolism” value is recorded as “Moderate”. For the same molecule, the “2Dsw (Xu 2008) 100x” value with PHH 2D sandwich cultures (setting [7]) is on record as “Negative”. For the same molecule, the “MPCC (Khetani 2013) 100x” value in data set [4] (setting [8]) is given as “Negative”.

`Nc1c2c(nc3ccccc13)CCCC2` [Tacrine]: in data set [1], the “Chemically defined spheroids” value is “Negative”. In addition, the viability (commonly a per cent measure of how many cells are alive, often set against a control) at 14 days, 20 × cmax in “in vitro” is over 100%. In the data set on clinical DILI in man (in vivo), the Classified as result is “POS”, the “Clinical DILI class” value is reported as “High DILI concern”, the DILI in vivo result is reported as “POS” and the “Type of DILI” value is reported as “Hepatocellular injury”. Besides, the Cmax in data set [2] (human, in vivo) is 0.07 µM. The “2Dsw (Xu 2008) 100x” value with PHH 2D sandwich cultures is on record as “Negative”. The “Hanging-drop spheroids” value in data set [5] was “Negative”.

As to `CNCCC=C1c2ccccc2CCc2ccccc21` [Nortriptyline], in data set [1], the “Chemically defined spheroids” value is on record as “Positive”. In addition, the “FDA (Severity)” value in the data set on clinical DILI in man (FDA drug labeling DILI concern, ref Chen et al., 2011) is reported as “most DILI concern”. In addition, in the data set on clinical DILI in man (FDA drug labeling DILI score, ref Chen et al., 2011), the “FDA (0-8)” value is on record as 8. For the same molecule, the DILI in vivo entry with clinical DILI in man (setting [10]) and in the data set on clinical DILI in man (setting [12]) was “POS” in each case. Moreover, the Classified as result in the data set on clinical DILI in man (setting [11]) is on record as “POS”. Further, the “Xu et al. (2008)” value with clinical DILI in man (clinical DILI classification, ref Xu et al. (2008)) is on record as “Positive”. In the data set on clinical DILI in man (reported pattern of liver damage, Supplementary Table 2, ref literature), the “Type of DILI” value is “Hepatocellular injury”. The Cmax in data set [2] (setting [6]) is 1.5 µM. The “Extent of hepatic metabolism” value in data set [3] is “Extensive”. For the same molecule, the “2Dsw (Xu 2008) 100x” value in the data set on PHH 2D sandwich cultures (setting [7]) is reported as “Negative”. For the same molecule, in data set [4] (setting [8]), the “MPCC (Khetani 2013) 100x” value was “Positive”.

As to `CN(C)CCCN1c2ccccc2CCc2ccccc21` [Imipramine], the “Extent of hepatic metabolism” value in data set [3] was “Extensive”. Further, the “hepatotoxicity detection in 2D sandwich cultures of PHH” value with PHH 2D sandwich cultures (ref Xu et al., 2008) is “liver toxicity was not recognized”. Further, the “2Dsw (Xu 2008) 100x” value in the data set with PHH 2D sandwich cultures (setting [7]) is reported as “Negative”. For the same molecule, the “MPCC (Khetani 2013) 100x” value in data set [4] (setting [8]) was “Positive”. The “Hanging-drop spheroids” value in data set [5] (setting [9]) was “Positive”.

Consider `CNCCC(Oc1ccc(C(F)(F)F)cc1)c1ccccc1` (stereo not shown) [Fluoxetine], for which the “Chemically defined spheroids” value in data set [1] is “Negative”. In addition, in the data set on clinical DILI in man (in vivo), the Classified as result is “NEG”, the “Clinical DILI class” value is on record as “DILI negative”, the DILI in vivo entry is recorded as “NEG” and the “FDA (0-8)” value is recorded as 3. For the same molecule, in the data set with clinical DILI in man (in vivo), the “Sakatis et al. (2012)” value is “non-hepatotixic”, the “Suzuki et al. (2010)” value is 2, the “Type of DILI” value is recorded as “Non-hepatotoxic” and the “Xu et al. (2008)” value is “Negative”. In addition, the “2Dsw (Xu 2008) 100x” value in the data set with PHH 2D sandwich cultures is reported as “Negative”. Further, the “MPCC (Khetani 2013) 100x” value in data set [4] is “Negative”. Besides, the “hepatotoxicity classification in hanging-drop PHH spheroids” value in data set [5] (100× cmax, 2 weeks, ref Proctor et al., 2017) is “flagged as hepatotoxic”. The “Hanging-drop spheroids” value in data set [5] is “Positive”.

For the molecule `COC1=CC(=O)C[C@@H](C)[C@]12Oc1c(Cl)c(OC)cc(OC)c1C2=O` [Griseofulvin], in data set [1], the “Chemically defined spheroids” value is listed as “Negative”. The viability at 14 days, 20 × cmax in the data set “in vitro” is over 100%. In data set [2] (setting [6]), the Cmax is 4.54 µM. Further, the “Extent of hepatic metabolism” value in data set [3] is “Extensive”.

`CC(CCc1ccccc1)NCC(O)c1ccc(O)c(C(N)=O)c1` (stereo not shown) [Labetalol]: in data set [1], the “Chemically defined spheroids” value is given as “Negative” and the “hepatotoxicity evaluation in CD-spheroids” value was “predicted to be DILI negative”. The viability at 14 days, 20 × cmax in “in vitro” was over 100%. Besides, in the data set on clinical DILI in man (in vivo), the Classified as entry is listed as “POS”, the “Clinical DILI class” value is “Severe DILI”, the DILI in vivo result was “POS” and the “FDA (0-8)” value was 8. Further, in the data set with clinical DILI in man (in vivo), the “FDA (Severity)” value is on record as “most DILI concern”, the “O'Brien et al. (2003)” value is “Severely”, the “Sakatis et al. (2012)” value was “Hepatotoxic” and the “Suzuki et al. (2010)” value is given as 3. Besides, in the data set on clinical DILI in man (in vivo), the “Type of DILI” value was “Hepatocellular injury” and the “Xu et al. (2008)” value was “Positive”. For the same molecule, the maximum concentration (Cmax) in data set [2] (setting [6]) was 2.68 µM. For the same molecule, the “Extent of hepatic metabolism” value in data set [3] is listed as “Extensive”. Besides, in the data set on PHH 2D sandwich cultures (ref Xu et al., 2008), the “hepatotoxicity detection in 2D sandwich cultures of PHH” value was “flagged as hepatotoxic” and the “reactive oxygen species levels in 2D sandwich cultures of PHH” value is reported as “only slight increases in reactive oxygen species levels”. The “2Dsw (Xu 2008) 100x” value in the data set with PHH 2D sandwich cultures (setting [7]) is recorded as “Positive”.

As for `O=C1CC2(CCCC2)CC(=O)N1CCCCN1CCN(c2ncccn2)CC1` [Buspirone], in data set [1], the “Chemically defined spheroids” value is “Negative” and the “hepatotoxicity evaluation in CD-spheroids” value is “not hepatotoxic”. Also, in the data set with PHH 2D sandwich cultures (setting [7]), the “2Dsw (Xu 2008) 100x” value is listed as “Negative”. Further, the “MPCC (Khetani 2013) 100x” value in data set [4] (setting [8]) is given as “Negative”. In addition, the “Hanging-drop spheroids” value in data set [5] (setting [9]) is given as “Negative”.
